Test results taken from ChEMBL document CHEMBL4382214, “Antileishmanial activity of new hybrid tetrahydroquinoline and quinoline derivatives with phosphorus substituents” (Eur J Med Chem, 2019).
Calls of active or inactive are those of the source. The calls are words filed in the database; no cut-off is given here.

Legend:
DNA topoisomerase 1 = biological target: T1, DNA topoisomerase 1 (Homo sapiens, UniProt P11387); experiment: Inhibition of human Top1B expressed in Top1B deficient Saccharomyces cerevisiae EKY3 assessed as decrease in relaxation of supercoiled pSK DNA preincubated for 15 mins followed by DNA addition and measured after 5 mins by agarose gel electrophoresis
T1 sequence (P11387 whole entry): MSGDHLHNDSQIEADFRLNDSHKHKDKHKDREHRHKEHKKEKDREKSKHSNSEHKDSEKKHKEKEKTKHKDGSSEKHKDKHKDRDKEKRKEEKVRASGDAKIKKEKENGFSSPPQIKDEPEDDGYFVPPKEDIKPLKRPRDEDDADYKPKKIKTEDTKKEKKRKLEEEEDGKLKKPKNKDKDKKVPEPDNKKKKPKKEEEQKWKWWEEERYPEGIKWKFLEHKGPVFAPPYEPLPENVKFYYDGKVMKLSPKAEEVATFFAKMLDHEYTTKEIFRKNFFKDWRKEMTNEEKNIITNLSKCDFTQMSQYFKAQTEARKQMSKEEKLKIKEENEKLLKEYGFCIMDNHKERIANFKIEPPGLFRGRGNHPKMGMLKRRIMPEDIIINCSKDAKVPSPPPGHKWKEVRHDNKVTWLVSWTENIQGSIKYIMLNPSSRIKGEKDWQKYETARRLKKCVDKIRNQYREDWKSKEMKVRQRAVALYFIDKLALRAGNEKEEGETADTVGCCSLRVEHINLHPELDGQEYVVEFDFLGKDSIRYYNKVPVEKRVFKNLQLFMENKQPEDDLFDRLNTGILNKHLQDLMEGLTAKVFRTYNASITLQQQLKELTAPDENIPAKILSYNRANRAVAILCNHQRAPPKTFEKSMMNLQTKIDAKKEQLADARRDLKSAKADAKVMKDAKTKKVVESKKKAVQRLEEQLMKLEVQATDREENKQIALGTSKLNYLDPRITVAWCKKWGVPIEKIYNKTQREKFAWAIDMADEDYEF

Leishmania donovani [1] = experiment: Inhibition of Leishmania donovani Top1B expressed in Top1B deficient Saccharomyces cerevisiae EKY3 assessed as decrease in relaxation of supercoiled pSK DNA preincubated for 15 mins followed by DNA addition and measured after 2 to 16 mins by agarose gel electrophoresis
Leishmania infantum [2] = experiment: Leishmanicidal activity against amastigote stage of iRFP expressing Leishmania infantum BCN150 infected in BALB/c mouse splenocytes assessed as decrease in parasite viability by fluorescence assay; type: functional, organism-based
[3] = Cytotoxicity against BALB/c mouse splenocytes assessed as reduction in cell viability by alamar blue assay; type: cell-based, Splenocyte
[4] = Inhibition of Leishmania donovani Top1B expressed in Top1B deficient Saccharomyces cerevisiae EKY3 assessed as decrease in relaxation of supercoiled pSK DNA preincubated for 15 mins followed by DNA addition and measured after 5 mins by agarose gel electrophoresis
Leishmania infantum [5] = experiment: Leishmanicidal activity against promastigote stage of iRFP expressing Leishmania infantum BCN150 assessed as decrease in parasite viability after 72 hrs by fluorescence assay; type: functional, organism-based; conditions: BCN150, 72 h
[6] = Selectivity index, ratio of CC50 for BALB/c mouse splenocytes to EC50 for amastigote stage of iRFP expressing Leishmania infantum BCN150 infected in BALB/c mouse splenocytes; type: toxicity, cell-based; conditions: read-out: Ratio CC50/EC50
Leishmania donovani [7] = experiment: Inhibition of Leishmania donovani Top1B expressed in Top1B deficient Saccharomyces cerevisiae EKY3 assessed as decrease in relaxation of supercoiled pSK DNA preincubated for 15 mins followed by DNA addition and measured after 2 to 8 mins by agarose gel electrophoresis
Leishmania donovani [8] = experiment: Inhibition of Leishmania donovani Top1B expressed in Top1B deficient Saccharomyces cerevisiae EKY3 assessed as decrease in relaxation of supercoiled pSK DNA preincubated for 15 mins followed by DNA addition and measured after 16 mins by agarose gel electrophoresis
[9] = biological target: T2, DNA topoisomerase 1 (Homo sapiens) (UniProt P11387); experiment: Inhibition of human Top1B expressed in Top1B deficient Saccharomyces cerevisiae EKY3 assessed as decrease in relaxation of supercoiled pSK DNA preincubated for 15 mins followed by DNA addition and measured after 2 to 8 mins by agarose gel electrophoresis
T2 sequence (whole entry): T1 sequence (P11387 whole entry)

[10] = biological target: T2, DNA topoisomerase 1 (Homo sapiens); experiment: Inhibition of human Top1B expressed in Top1B deficient Saccharomyces cerevisiae EKY3 assessed as decrease in relaxation of supercoiled pSK DNA preincubated for 15 mins followed by DNA addition and measured after 16 mins by agarose gel electrophoresis
Leishmania donovani [11] = experiment: Inhibition of Leishmania donovani Top1B expressed in Top1B deficient Saccharomyces cerevisiae EKY3 assessed as decrease in relaxation of supercoiled pSK DNA preincubated for 15 mins followed by DNA addition and measured after 2 to 4 mins by agarose gel electrophoresis
[12] = biological target: T2, DNA topoisomerase 1 (Homo sapiens); experiment: Inhibition of human Top1B expressed in Top1B deficient Saccharomyces cerevisiae EKY3 assessed as decrease in relaxation of supercoiled pSK DNA preincubated for 15 mins followed by DNA addition and measured after 2 to 4 mins by agarose gel electrophoresis
Leishmania donovani [13] = experiment: Inhibition of Leishmania donovani Top1B expressed in Top1B deficient Saccharomyces cerevisiae EKY3 assessed as decrease in relaxation of supercoiled pSK DNA preincubated for 15 mins followed by DNA addition and measured after 8 to 16 mins by agarose gel electrophoresis
[14] = biological target: T2, DNA topoisomerase 1 (Homo sapiens); experiment: Inhibition of human Top1B expressed in Top1B deficient Saccharomyces cerevisiae EKY3 assessed as decrease in relaxation of supercoiled pSK DNA preincubated for 15 mins followed by DNA addition and measured after 8 to 16 mins by agarose gel electrophoresis
[15] = biological target: T2, DNA topoisomerase 1 (Homo sapiens); experiment: Inhibition of human Top1B expressed in Top1B deficient Saccharomyces cerevisiae EKY3 assessed as decrease in relaxation of supercoiled pSK DNA preincubated for 15 mins followed by DNA addition and measured after 2 to 16 mins by agarose gel electrophoresis
Leishmania donovani [16] = experiment: Inhibition of Leishmania donovani Top1B expressed in Top1B deficient Saccharomyces cerevisiae EKY3 assessed as decrease in relaxation of supercoiled pSK DNA preincubated for 15 mins followed by DNA addition and measured after 2 mins by agarose gel electrophoresis
Leishmania donovani [17] = experiment: Inhibition of Leishmania donovani Top1B expressed in Top1B deficient Saccharomyces cerevisiae EKY3 assessed as decrease in relaxation of supercoiled pSK DNA preincubated for 15 mins followed by DNA addition and measured after 4 to 16 mins by agarose gel electrophoresis

SMILES: Fc1ccc(-c2cc(-c3ccc(F)cc3)c3cccc(P(=S)(c4ccccc4)c4ccccc4)c3n2)cc1
- IC50 (DNA topoisomerase 1): Not Active
- inhibition (Leishmania donovani [1]): inactive
- EC50 (Leishmania infantum [2]): > 10 µM
- CC50 [3]: 92.1 µM
- IC50 [4]: Not Active
- EC50 (Leishmania infantum [5]): 11 µM

SMILES: O=P(c1ccccc1)(c1ccccc1)c1cccc2c(-c3ccc(F)cc3)cc(-c3ccc(F)c(F)c3)nc12
- selectivity ratio [6]: 11.1
- IC50 (DNA topoisomerase 1; read-out: IC50): 69.6 µM
- inhibition (Leishmania donovani [7]): Active
- inhibition (Leishmania donovani [8]): inactive
- EC50 (Leishmania infantum [2]): 2.15 µM
- inhibition [9]: Active
- inhibition [10]: inactive
- CC50 [3]: 23.9 µM
- IC50 ([4]; read-out: IC50): 48.1 µM
- EC50 (Leishmania infantum [5]): 2.33 µM

SMILES: Fc1ccc(-c2cc(-c3ccc(C(F)(F)F)cc3)nc3c(P(=S)(c4ccccc4)c4ccccc4)cccc23)cc1
- inhibition (Leishmania donovani [11]): Active
- IC50 (DNA topoisomerase 1; read-out: IC50): 27.4 µM
- EC50 (Leishmania infantum [2]): > 10 µM
- inhibition [12]: Active
- inhibition (Leishmania donovani [13]): inactive
- inhibition [14]: inactive
- CC50 [3]: 89.7 µM
- IC50 ([4]; read-out: IC50): 34.3 µM
- EC50 (Leishmania infantum [5]): 8.83 µM

SMILES: O=P(c1ccccc1)(c1ccccc1)c1cccc2c(-c3ccc(F)cc3)cc(-c3ccccc3)nc12
- selectivity ratio [6]: 51.1
- IC50 (DNA topoisomerase 1): Not Active
- inhibition (Leishmania donovani [1]): inactive
- EC50 (Leishmania infantum [2]): 1.39 µM
- CC50 [3]: 71 µM
- IC50 [4]: Not Active
- EC50 (Leishmania infantum [5]): 6.01 µM

SMILES: O=P(c1ccccc1)(c1ccccc1)c1cccc2c(-c3ccccc3)cc(-c3ccc4ccccc4c3)nc12
- selectivity ratio [6]: 13.8
- IC50 (DNA topoisomerase 1): Not Active
- inhibition (Leishmania donovani [1]): inactive
- EC50 (Leishmania infantum [2]): 4.14 µM
- CC50 [3]: 57.1 µM
- IC50 [4]: Not Active
- EC50 (Leishmania infantum [5]): 4.91 µM

SMILES: Cc1ccc([C@H]2C[C@@H](c3ccc(F)cc3)Nc3c2cccc3P(c2ccccc2)c2ccccc2)cc1 (relative stereo)
- selectivity ratio [6]: 26.2
- IC50 (DNA topoisomerase 1; read-out: IC50): 44.8 µM
- inhibition (Leishmania donovani [1]): Active
- EC50 (Leishmania infantum [2]): 1.79 µM
- inhibition [15]: Active
- CC50 [3]: 47 µM
- IC50 ([4]; read-out: IC50): 47.9 µM
- EC50 (Leishmania infantum [5]): 20.9 µM

SMILES: COc1ccc([C@@H]2C[C@H](c3ccc(C)cc3)c3cccc(P(c4ccccc4)c4ccccc4)c3N2)cc1 (relative stereo)
- selectivity ratio [6]: > 8.4
- IC50 (DNA topoisomerase 1; read-out: IC50): 84.6 µM
- inhibition (Leishmania donovani [1]): Active
- EC50 (Leishmania infantum [2]): 5.96 µM
- inhibition [15]: Active
- CC50 [3]: > 50 µM
- IC50 ([4]; read-out: IC50): 23.6 µM
- EC50 (Leishmania infantum [5]): 27.7 µM

SMILES: COc1ccccc1[C@@H]1C[C@H](c2ccccc2)c2cccc(P(=O)(c3ccccc3)c3ccccc3)c2N1 (relative stereo)
- selectivity ratio [6]: 34.9
- IC50 (DNA topoisomerase 1): Not Active
- inhibition (Leishmania donovani [1]): inactive
- EC50 (Leishmania infantum [2]): 0.98 µM
- CC50 [3]: 34.2 µM
- IC50 [4]: Not Active
- EC50 (Leishmania infantum [5]): 9.39 µM

SMILES: COc1ccc([C@@H]2C[C@H](c3ccccc3)c3cccc(P(=S)(c4ccccc4)c4ccccc4)c3N2)cc1 (relative stereo)
- selectivity ratio [6]: 56.9
- inhibition (Leishmania donovani [11]): Active
- IC50 (DNA topoisomerase 1): Not Active
- EC50 (Leishmania infantum [2]): 0.61 µM
- inhibition (Leishmania donovani [13]): inactive
- CC50 [3]: 34.7 µM
- IC50 ([4]; read-out: IC50): 93.7 µM
- EC50 (Leishmania infantum [5]): 10.7 µM

SMILES: O=[N+]([O-])c1ccc([C@@H]2C[C@H](c3ccccc3)c3cccc(P(=S)(c4ccccc4)c4ccccc4)c3N2)cc1 (relative stereo)
- selectivity ratio [6]: 20.9
- IC50 (DNA topoisomerase 1): Not Active
- inhibition (Leishmania donovani [1]): inactive
- EC50 (Leishmania infantum [2]): 2.73 µM
- CC50 [3]: 57 µM
- IC50 [4]: Not Active
- EC50 (Leishmania infantum [5]): 36.4 µM

SMILES: O=P(c1ccccc1)(c1ccccc1)c1cccc2c1N[C@H](c1ccc(F)c(F)c1)C[C@@H]2c1ccc(F)cc1 (relative stereo)
- selectivity ratio [6]: 43.6
- IC50 (DNA topoisomerase 1): Not Active
- inhibition (Leishmania donovani [1]): inactive
- EC50 (Leishmania infantum [2]): 1.46 µM
- CC50 [3]: 63.7 µM
- IC50 [4]: Not Active
- EC50 (Leishmania infantum [5]): 6.15 µM

SMILES: Cc1ccc([C@H]2C[C@@H](c3ccc(F)cc3)Nc3c2cccc3P(=O)(c2ccccc2)c2ccccc2)cc1 (relative stereo)
- selectivity ratio [6]: 7.47
- IC50 (DNA topoisomerase 1): Not Active
- inhibition (Leishmania donovani [1]): inactive
- EC50 (Leishmania infantum [2]): 1.85 µM
- CC50 [3]: 13.8 µM
- IC50 [4]: Not Active
- EC50 (Leishmania infantum [5]): 7.1 µM

SMILES: Fc1ccc([C@H]2C[C@@H](c3ccccc3)Nc3c2cccc3P(c2ccccc2)c2ccccc2)cc1 (relative stereo)
- selectivity ratio [6]: 51.8
- IC50 (DNA topoisomerase 1; read-out: IC50): 42.2 µM
- inhibition (Leishmania donovani [1]): Active
- EC50 (Leishmania infantum [2]): 1.75 µM
- inhibition [15]: Active
- CC50 [3]: 90.6 µM
- IC50 ([4]; read-out: IC50): 54.2 µM
- EC50 (Leishmania infantum [5]): 3.14 µM

SMILES: C[C@@H]1[C@H](O)[C@@H](C)/C=C/C=C/C=C/C=C/C=C/C=C/C=C/[C@H](O[C@@H]2O[C@H](C)[C@@H](O)[C@H](N)[C@@H]2O)C[C@@H]2O[C@](O)(C[C@@H](O)C[C@@H](O)[C@H](O)CC[C@@H](O)C[C@@H](O)CC(=O)O[C@H]1C)C[C@H](O)[C@H]2C(=O)O [AMPHOTERICIN B]
- selectivity ratio [6]: 62.5
- EC50 (Leishmania infantum [2]): 0.32 µM
- CC50 [3]: > 20 µM
- EC50 (Leishmania infantum [5]): 0.77 µM

SMILES: CC[C@@]1(O)C(=O)OCc2c1cc1n(c2=O)Cc2cc3ccccc3nc2-1 [CAMPTOTHECIN]
- inhibition (Leishmania donovani [16]): Active
- IC50 (DNA topoisomerase 1): Not Active
- inhibition (Leishmania donovani [17]): inactive
- IC50 [4]: Not Active
